Legend:
Type in all cases: in vivo
[1] = tested on: ducksalad (Heteranthera limosa); experiment: Test B flooded paddy test, plant response rating; details: 250 g ai/ha; Flood; scale of 0 to 100 where 0 is no effect and 100 is complete control; 13 to 15 days
Procedure, shortened: (§1)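 Test compounds are applied straight into paddy water held 3 cm above the soil surface, with that flood maintained for the whole test. After 13 to 15 days in the greenhouse, each species is scored visually relative to controls.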

rice (Oryza sativa) = experiment: Test B flooded paddy test, plant response rating; details: 250 g ai/ha; Flood; scale of 0 to 100 where 0 is no effect and 100 is complete control; 13 to 15 days
Procedure, shortened: as §1

[2] = tested on: sedge, umbrella (small-flower umbrella sedge, Cyperus difformis); experiment: Test B flooded paddy test, plant response rating; details: 250 g ai/ha; Flood; scale of 0 to 100 where 0 is no effect and 100 is complete control; 13 to 15 days
Procedure, shortened: as §1

[3] = tested on: blackgrass (Alopecurus myosuroides); experiment: Test C preemergence, plant response rating; details: Preemergence
Procedure, shortened: (§2)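 Visual injury score, 0 = no effect, 100 = complete control, assigned against untreated controls after 13 to 15 d in the greenhouse. Compounds were applied in a surfactant-containing non-phytotoxic solvent mix, preemergence to seeded loam/sand or silt loam soil, or postemergence to 1- to 4-leaf plants (2 to 18 cm).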

corn (Zea mays) = experiment: Test C preemergence, plant response rating; details: Preemergence
Procedure, shortened: as §2

[4] = tested on: crabgrass, large (large crabgrass, Digitaria sanguinalis); experiment: Test C preemergence, plant response rating; details: Preemergence
Procedure, shortened: as §2

[5] = tested on: foxtail, giant (giant foxtail, Setaria faberii); experiment: Test C preemergence, plant response rating; details: Preemergence
Procedure, shortened: as §2

[6] = tested on: lambsquarters (Chenopodium album); experiment: Test C preemergence, plant response rating; details: Preemergence
Procedure, shortened: as §2

[7] = tested on: morningglory (Ipomoea coccinea); experiment: Test C preemergence, plant response rating; details: Preemergence
Procedure, shortened: as §2

[8] = tested on: nutsedge, yellow (yellow nutsedge, Cyperus esculentus); experiment: Test C preemergence, plant response rating; details: Preemergence
Procedure, shortened: as §2

[9] = tested on: oilseed rape (Brassica napus); experiment: Test C preemergence, plant response rating; details: Preemergence
Procedure, shortened: as §2

[10] = tested on: ragweed (common ragweed, Ambrosia elatior); experiment: Test C preemergence, plant response rating; details: Preemergence
Procedure, shortened: as §2

[11] = tested on: ryegrass, Italian (Italian ryegrass, Lolium multiflorum); experiment: Test C preemergence, plant response rating; details: Preemergence
Procedure, shortened: as §2

soybean (Glycine max) = experiment: Test C preemergence, plant response rating; details: Preemergence
Procedure, shortened: as §2

[12] = tested on: velvetleaf (Abutilon theophrasti); experiment: Test C preemergence, plant response rating; details: Preemergence
Procedure, shortened: as §2

[13] = tested on: waterhemp (common waterhemp, Amaranthus rudis); experiment: Test C preemergence, plant response rating; details: Preemergence
Procedure, shortened: as §2

[14] = tested on: wheat (winter wheat, Triticum aestivum); experiment: Test C preemergence, plant response rating; details: Preemergence
Procedure, shortened: as §2

[15] = tested on: pigweed (Amaranthus retroflexus); experiment: Test C preemergence, plant response rating; details: Preemergence

O=C(CCCC(F)(F)F)c1c(Br)cccc1Oc1ncc(Cl)cn1 [Compound 77]
Plant response rating, Ducksalad [1]: 85
Plant response rating, Rice (rice (Oryza sativa)): 0
Plant response rating, Sedge, Umbrella [2]: 100
Plant response rating, Blackgrass ([3]; 62 g ai/ha, scale of 0 to 100): 90
Plant response rating, Blackgrass ([3]; 125 g ai/ha, scale of 0 to 100): 100
Plant response rating, Blackgrass ([3]; 16 g ai/ha, scale 0 to 100): 5
Plant response rating, Blackgrass ([3]; 31 g ai/ha, scale 0 to 100): 15
Plant response rating, Corn (corn (Zea mays); 62 g ai/ha, scale of 0 to 100): 20
Plant response rating, Corn (corn (Zea mays); 125 g ai/ha, scale of 0 to 100): 35
Plant response rating, Corn (corn (Zea mays); 16 g ai/ha, scale 0 to 100): 0
Plant response rating, Corn (corn (Zea mays); 31 g ai/ha, scale 0 to 100): 15
Plant response rating, Crabgrass, Large ([4]; 62 g ai/ha, scale of 0 to 100): 100
Plant response rating, Crabgrass, Large ([4]; 125 g ai/ha, scale of 0 to 100): 100
Plant response rating, Crabgrass, Large ([4]; 16 g ai/ha, scale 0 to 100): 98
Plant response rating, Crabgrass, Large ([4]; 31 g ai/ha, scale 0 to 100): 100
Plant response rating, Foxtail, Giant ([5]; 62 g ai/ha, scale of 0 to 100): 100
Plant response rating, Foxtail, Giant ([5]; 125 g ai/ha, scale of 0 to 100): 100
Plant response rating, Foxtail, Giant ([5]; 16 g ai/ha, scale 0 to 100): 95
Plant response rating, Foxtail, Giant ([5]; 31 g ai/ha, scale 0 to 100): 100
Plant response rating, Lambsquarters ([6]; 125 g ai/ha, scale of 0 to 100): 98
Plant response rating, Lambsquarters ([6]; 16 g ai/ha, scale 0 to 100): 50
Plant response rating, Lambsquarters ([6]; 31 g ai/ha, scale 0 to 100): 60
Plant response rating, Lambsquarters ([6]; 62 g ai/ha, scale 0 to 100): 100
Plant response rating, Morningglory ([7]; 125 g ai/ha, scale of 0 to 100): 65
Plant response rating, Morningglory ([7]; 16 g ai/ha, scale 0 to 100): 10
Plant response rating, Morningglory ([7]; 31 g ai/ha, scale 0 to 100): 20
Plant response rating, Morningglory ([7]; 62 g ai/ha, scale 0 to 100): 35
Plant response rating, Nutsedge, Yellow ([8]; 125 g ai/ha, scale of 0 to 100): 30
Plant response rating, Nutsedge, Yellow ([8]; 16 g ai/ha, scale 0 to 100): 0
Plant response rating, Nutsedge, Yellow ([8]; 31 g ai/ha, scale 0 to 100): 0
Plant response rating, Nutsedge, Yellow ([8]; 62 g ai/ha, scale 0 to 100): 0
Plant response rating, Oilseed Rape ([9]; 125 g ai/ha, scale of 0 to 100): 100
Plant response rating, Oilseed Rape ([9]; 16 g ai/ha, scale 0 to 100): 0
Plant response rating, Oilseed Rape ([9]; 31 g ai/ha, scale 0 to 100): 55
Plant response rating, Oilseed Rape ([9]; 62 g ai/ha, scale 0 to 100): 100
Plant response rating, Ragweed ([10]; 125 g ai/ha, scale of 0 to 100): 45
Plant response rating, Ragweed ([10]; 16 g ai/ha, scale 0 to 100): 0
Plant response rating, Ragweed ([10]; 31 g ai/ha, scale 0 to 100): 0
Plant response rating, Ragweed ([10]; 62 g ai/ha, scale 0 to 100): 40
Plant response rating, Ryegrass, Italian ([11]; 125 g ai/ha, scale of 0 to 100): 90
Plant response rating, Ryegrass, Italian ([11]; 16 g ai/ha, scale 0 to 100): 0
Plant response rating, Ryegrass, Italian ([11]; 31 g ai/ha, scale 0 to 100): 30
Plant response rating, Ryegrass, Italian ([11]; 62 g ai/ha, scale 0 to 100): 35
Plant response rating, Soybean (soybean (Glycine max); 125 g ai/ha, scale of 0 to 100): 25
Plant response rating, Soybean (soybean (Glycine max); 16 g ai/ha, scale 0 to 100): 5
Plant response rating, Soybean (soybean (Glycine max); 31 g ai/ha, scale 0 to 100): 5
Plant response rating, Soybean (soybean (Glycine max); 62 g ai/ha, scale 0 to 100): 15
Plant response rating, Velvetleaf ([12]; 125 g ai/ha, scale of 0 to 100): 100
Plant response rating, Velvetleaf ([12]; 16 g ai/ha, scale 0 to 100): 10
Plant response rating, Velvetleaf ([12]; 31 g ai/ha, scale 0 to 100): 30
Plant response rating, Velvetleaf ([12]; 62 g ai/ha, scale 0 to 100): 70
Plant response rating, Waterhemp ([13]; 125 g ai/ha, scale of 0 to 100): 100
Plant response rating, Waterhemp ([13]; 16 g ai/ha, scale 0 to 100): 95
Plant response rating, Waterhemp ([13]; 31 g ai/ha, scale 0 to 100): 100
Plant response rating, Waterhemp ([13]; 62 g ai/ha, scale 0 to 100): 100
Plant response rating, Wheat ([14]; 125 g ai/ha, scale of 0 to 100): 0
Plant response rating, Wheat ([14]; 16 g ai/ha, scale 0 to 100): 0
Plant response rating, Wheat ([14]; 31 g ai/ha, scale 0 to 100): 0
Plant response rating, Wheat ([14]; 62 g ai/ha, scale 0 to 100): 0
Plant response rating, Pigweed ([15]; 125 g ai/ha, scale of 0 to 100): 100
Plant response rating, Pigweed ([15]; 16 g ai/ha, scale 0 to 100): 85
Plant response rating, Pigweed ([15]; 31 g ai/ha, scale 0 to 100): 100
Plant response rating, Pigweed ([15]; 62 g ai/ha, scale 0 to 100): 100
